Experimental data as given in patent US12384818B2, “Cyclin-dependent kinase 5 (CDK5) inhibitory peptides” (Massachusetts Institute of Technology, priority 2017, dated 2025).
Ends that are not written are not given here. Peptide text beside a SMILES is read from it. * marks the point of attachment. FITC = O=C1OC2(c3ccc(O)cc3Oc3cc(O)ccc32)c2ccc(NC(=S)*)cc21; Ahx = NCCCCCC(=O)O

Tests used:
[1] = Blood brain barrier penetration in mice, targeted mass spectrometry of brain lysate; type: in vivo; conditions: 24 hours; for #Spec (number of spectra) / Area (peak area): tryptic fragment in brain lysate, mice 40 mg/kg i.p.
Method: Wild type mice were intraperitoneally injected with a single dose (40 mg/kg) of Cdk5i, and were sacrificed 24 hours after the injection. Prior to extracting the brain, mice were transcardially perfused with 40 mL of cold phospho-buffered saline (PBS) to ensure clearance of any Cdk5i circulating in the blood that may not have crossed the blood brain barrier. After the perfusion, the brains were dissected into two hemispheres and one hemisphere was lysed with cold lysis buffer (RIPA) to extract total protein. Total protein was then briefly run on a 12% acrylamide gel to separate large proteins and then digested with a trypsin enzyme and subjected to targeted mass spectrometry analysis using Cdk5i peptide sequence of SEQ ID NO. 3 linked to a GGG spacer/linker and FITC (Cdk5i sequence: FITC-GGG-SEQ ID NO. 3).
A substantial portion (11 amino acids out of 12) of the Cdk5i sequence including the conjugated tat protein sequence were detected using mass spectrometry based on the number of spectra and peak area. Using targeted mass spectrometry, brain lysate from mice injected with Cdk5i show an enrichment for Cdk5i based on # of spectra and peak area (2nd row of data in Table 1).

[2] = system: Human iPSC-derived neural progenitor cells; conditions: 1 μM, 2 hr; FIG. 9B

portion of the Cdk5i sequence detected in brain ([1]; wild type mice, single dose 40 mg/kg intraperitoneally, perfused brain, mass spectrometry) | blood brain barrier penetration / enrichment in brain lysate ([1]; wild type mice, single dose 40 mg/kg intraperitoneally, targeted mass spectrometry) | Compound | #Spec (number of spectra) [1] | Area (peak area) [1] | penetration of plasma membrane (intracellular FITC signals) [2]
 |  | R.AFGIPVRCYSYGR.K: tryptic fragment of Cdk5i-Tat detected in mouse brain lysate by mass spectrometry | 22 | 8.42E+08 | 
11 amino acids out of 12 | enrichment | ARAFGIPVRCYS [CDK5i] |  |  | 
 |  | ARAFGIPVR | 12 | 3.83E+07 | 
 |  | R.CYSYGRK.K: tryptic fragment of Cdk5i-Tat detected in mouse brain lysate by mass spectrometry | 12 | 6.13E+08 | 
 |  | CC[C@H](C)[C@H](NC(=O)CNC(=O)[C@H](Cc1ccccc1)NC(=O)[C@H](C)NC(=O)[C@H](CCCNC(=N)N)NC(=O)[C@H](C)NC(=O)CCCCCNC(=S)Nc1ccc2c(c1)C(=O)OC21c2ccc(O)cc2Oc2cc(O)ccc21)C(=O)N1CCC[C@H]1C(=O)N[C@H](C(=O)N[C@@H](CCCNC(=N)N)C(=O)N[C@@H](CS)C(=O)N[C@@H](Cc1ccc(O)cc1)C(=O)N[C@@H](CO)C(=O)N[C@@H](Cc1ccc(O)cc1)C(=O)NCC(=O)N[C@@H](CCCNC(=N)N)C(=O)N[C@@H](CCCCN)C(=O)N[C@@H](CCCCN)C(=O)N[C@@H](CCCNC(=N)N)C(=O)N[C@@H](CCCNC(=N)N)C(=O)N[C@@H](CCC(N)=O)C(=O)N[C@@H](CCCNC(=N)N)C(=O)N[C@@H](CCCNC(=N)N)C(=O)N[C@@H](CCCNC(=N)N)C(=O)O)C(C)C [FITC-Ahx-Cdk5i-Tat] ({FITC-Ahx}-ARAFGIPVRCYSYGRKKRRQRRR-OH) |  |  | able to penetrate plasma membrane
